Experimental data from patent US20080070868A1, “Novel Thiazole Inhibitors of Fructose 1,6-bisphosphatase” (Metabasis Therapeutics, Inc., priority 2004, published 2008).

System: Sprague-Dawley rats
Assay: Glucose lowering following oral administration to the fasted, normal rat
Assay type: in vivo
Conditions: maximum lowering relative to saline controls, 10 mg/kg oral, 18-h fasted rats
Procedure: Compounds were administered by oral gavage to 18-h fasted, Sprague-Dawley rats (250-300 g, n=3/4/group) at a dose of 10 mg/kg. Phosphonic acids (active moieties) were prepared in deionized water, and the solution adjusted to neutrality with sodium hydroxide. Prodrugs were dissolved in polyethylene glycol (mw 400). Blood samples were taken via tail vein nick immediately prior to dosing and at 1 h intervals thereafter. Blood glucose was analyzed by means of a HemoCue glucose analyzer (HemoCue Inc., Mission Viejo, Calif.). The table below indicates the maximum % glucose lowering achieved relative to control animals dosed with saline.

| Compound | inhibition in vivo at 10 mg/kg [%] |
| --- | --- |
| CCC(CC)C(=O)c1sc(N)nc1-c1ccc(P(=O)(N[C@@H](C)C(=O)OC(C)C)N[C@@H](C)C(=O)OC(C)C)o1 [Compound 2.26, 2-amino-5-(2-ethylbutyryl)-4-{[5-(N,N′-((S)-1-isopropyl-oxycarbonyl)ethyl)-phosphonamido]furan-2-yl}thiazole] | 16 |
| CCOC(=O)[C@H](C)NP(=O)(N[C@@H](C)C(=O)OCC)c1ccc(-c2nc(N)sc2C(=O)C(C)(CC)CC)o1 [Compound 2.7, 2-amino-5-(2-ethyl-2-methylbutyryl)-4-{[5-(N,N′-((S)-1-ethoxycar-bonyl)ethyl)phosphonamido]furan-2-yl}thiazole] | 10 |
| CCC(C)(C)C(=O)c1sc(N)nc1-c1ccc(P(=O)(NCC(=O)OC(C)(C)C)NCC(=O)OC(C)(C)C)o1 [Compound 2.12, 2-amino-5-(2,2-dimethylbutyryl)-4-{[5-(N,N′-tert-butyloxycarbonyl-methyl)phosphonamido]furan-2-yl}thiazole] | 10 |
| CCOC(=O)[C@H](C)NP(=O)(N[C@@H](C)C(=O)OCC)c1ccc(-c2nc(N)sc2C(=O)C(CC)CC)o1 [Compound 2.24, 2-amino-5-(2-ethylbutyryl)-4-{[5-(N,N′-((S)-1′-ethyl-oxycarbonyl)ethyl)-phosphonamido]furan-2-yl}thiazole] | 19 |
| CCOC(=O)[C@H](C)NP(=O)(N[C@@H](C)C(=O)OCC)c1ccc(-c2nc(N)sc2C(=O)c2ccccc2C)o1 [Compound 2.14, 2-amino-5-(2-methylbenzoyl)-4-{[5-(N,N′-((S)-1-ethyl-oxycarbonyl)ethyl)-phosphonamido]furan-2-yl}thiazole] | 20 |
| CCOC(=O)[C@H](C)NP(=O)(Oc1ccc2c(c1)OCO2)c1ccc(-c2nc(N)sc2C(=O)C(CC)CC)o1 (stereo partly shown) [Compound 5.1] | 8 |
| CCC(CC)C(=O)c1sc(N)nc1-c1ccc(P(=O)(OCOC(=O)C(C)(C)C)OCOC(=O)C(C)(C)C)o1 [Compound 8.2, 2-amino-5-(2-ethylbutyryl)-4-{[5-(O,O′-bis(pivalyloxymethyl)-phosphono)]-furan-2-yl}thiazole] | 10 |
| CCC(CC)C(=O)c1sc(N)nc1-c1ccc(P(=O)(NC(C)(C)C(=O)OC(C)C)NC(C)(C)C(=O)OC(C)C)o1 [Compound 2.25] | 10 |
| CC(C)(C)C(=O)c1sc(N)nc1-c1ccc(P(=O)(OCCSC(=O)c2ccccc2)OCCSC(=O)c2ccccc2)o1 [Compound 6.5] | 9 |
| CCOC(=O)[C@H](C)NP(=O)(N[C@@H](C)C(=O)OCC)c1ccc(-c2nc(N)sc2C(=O)c2ccc(C)cc2)o1 [Compound 2.16, 2-amino-5-(4-methylbenzoyl)-4-{[5-(N,N′-((S)-1-ethyl-oxycarbonyl)ethyl)-phosphonamido]furan-2-yl}thiazole] | 6 |
| CCOC(=O)C(C)(C)NP(=O)(NC(C)(C)C(=O)OCC)c1ccc(-c2nc(N)sc2C(=O)C2CCC2)o1 [Compound 2.29] | 12 |
| Cc1ccc(C(=O)c2sc(N)nc2-c2ccc(P(=O)(NC(C)(C)C(=O)OC(C)C)NC(C)(C)C(=O)OC(C)C)o2)cc1 [Compound 2.20] | 6 |
| CCOC(=O)C(C)(C)NP(=O)(OCC(=O)OCc1ccccc1)c1ccc(-c2nc(N)sc2C(=O)C(C)(C)C)o1 (stereo not shown) [Compound 5.5] | 20 |
| CC(=O)SC1CCCCC1OP(=O)(OC1CCCCC1SC(C)=O)c1ccc(-c2nc(N)sc2C(=O)C(C)(C)C)o1 (stereo not shown) [Compound 6.8] | 1 |
| CC(C)(C)C(=O)c1sc(N)nc1-c1ccc(P2(=O)OCC[C@@H](c3cccc(Cl)c3)O2)o1 (stereo partly drawn) [Compound 7.1, (cis)-2-amino-5-(2,2-dimethylpropionyl)-4-{[5-(4-(3-chlorophenyl)-2-oxo-1,3,2-phosphorinan-2-yl)]furan-2-yl}thiazole] | 70 |
| CCOC(=O)OCOP(=O)(OCOC(=O)OCC)c1ccc(-c2nc(N)sc2C(=O)C(C)(C)C)o1 [Compound 8.3, 2-amino-5-(2,2-dimethylpropionyl)-4-{[5-(O,O′-bis(ethoxycarbonyl-oxymethyl)phosphono)]furan-2-yl}thiazole] | 24 |
| CCOC(=O)COP(=O)(NC(C)(C)C(=O)OC(C)C)c1ccc(-c2nc(N)sc2C(=O)C(C)(C)C)o1 (stereo not shown) [Compound 5.7] | 25 |
| CCOC(=O)C(C)(C)NP(=O)(NC(C)(C)C(=O)OCC)c1ccc(-c2nc(N)sc2C(=O)C(CC)CC)o1 [Compound 2.23] | 12 |
| CC(C)OC(=O)C(C)(C)NP(=O)(NC(C)(C)C(=O)OC(C)C)c1ccc(-c2nc(N)sc2C(=O)c2cccc(F)c2)o1 [Compound 2.28] | 10 |
| CCC(C)(C)C(=O)c1sc(N)nc1-c1ccc(P(=O)(NC(C)(C)C(=O)OC(C)C)NC(C)(C)C(=O)OC(C)C)o1 [Compound 2.8] | 14 |

| Compound | inhibition in vivo at 10 mg/kg [%] |
| --- | --- |
| CCOC(=O)[C@H](C)NP(=O)(N[C@@H](C)C(=O)OCC)c1ccc(-c2nc(N)sc2C(=O)C(C)(C)CC)o1 [Compound 2.10, 2-amino-5-(2,2-dimethylbutyryl)-4-{[5-(N,N′-((S)-1-ethoxycarbonyl)-ethyl)phosphonamido]furan-2-yl}thiazole] | 12 |
| CCOC(=O)C(C)(C)NP(=O)(NC(C)(C)C(=O)OCC)c1ccc(-c2nc(N)sc2C(=O)c2cccc(F)c2)o1 [Compound 2.27] | 6 |
| CCOC(=O)COP(=O)(N[C@@H](C)C(=O)OCC)c1ccc(-c2nc(N)sc2C(=O)C(C)(C)C)o1 (stereo partly drawn) [Compound 5.8, 2-amino-5-(2,2-dimethylpropionyl)-4-{2-[5-(N-((S)-1-ethoxy-carbonyl)ethyl)-O-(ethoxycarbonylmethyl)monophosphonamido]furanyl}-thiazole] | 10 |
| CCOC(=O)[C@H](C)NP(=O)(N[C@@H](C)C(=O)OCC)c1ccc(-c2nc(N)sc2C(=O)c2cccc(F)c2)o1 [Compound 2.19, 2-amino-5-(3-fluorobenzoyl)-4-{[5-(N,N′-((S)-1-ethyloxy-carbonyl)ethyl)-phosphonamido]furan-2-yl}thiazole] | 16 |
| CCC(CC)C(=O)c1sc(N)nc1-c1ccc(P(=O)(OCCSC(=O)c2ccccc2)OCCSC(=O)c2ccccc2)o1 [Compound 6.2] | 3 |
| CC(C)(C)C(=O)OCOP(=O)(OCOC(=O)C(C)(C)C)c1ccc(-c2nc(N)sc2C(=O)C(C)(C)C)o1 [Compound 8.4, 2-amino-5-(2,2-dimethylpropionyl)-4-{[5-(O,O′-bis(pivalyloxymethyl)phosphono)]furan-2-yl}thiazole] | 6 |
| CCOC(=O)C(C)(C)NP(=O)(NC(C)(C)C(=O)OCC)c1ccc(-c2nc(N)sc2C(=O)c2ccc(C)cc2)o1 [Compound 2.17] | 10 |
| CCOC(=O)SCCOP(=O)(OCCSC(=O)OCC)c1ccc(-c2nc(N)sc2C(=O)C(C)(C)C)o1 [Compound 6.6] | 4 |
| CCOC(=O)C(C)(C)NP(=O)(NC(C)(C)C(=O)OCC)c1ccc(-c2nc(N)sc2C(=O)c2ccccc2C)o1 [Compound 2.15] | 8 |
| CCC(C)(CC)C(=O)c1sc(N)nc1-c1ccc(P(=O)(N[C@@H](C)C(=O)OC(C)C)N[C@@H](C)C(=O)OC(C)C)o1 [Compound 2.11, 2-amino-5-(2-ethyl-2-methylbutyryl)-4-{[5-(N,N′-((S)-1-isopropyloxy-carbonyl)-ethyl)phosphonamido]furan-2-yl}thiazole] | 13 |
| CCOC(=O)COP(=O)(NC(C)(C)C(=O)OCC)c1ccc(-c2nc(N)sc2C(=O)C(CC)CC)o1 (stereo not shown) [Compound 5.12] | 38 |
| CCOC(=O)C(C)(C)NP(=O)(O[C@@H](C)C(=O)OC(C)C)c1ccc(-c2nc(N)sc2C(=O)C(C)(C)C)o1 (stereo partly shown) [Compound 5.10] | 4 |
| CCOC(=O)C(C)(C)NP(=O)(NC(C)(C)C(=O)OCC)c1ccc(-c2nc(N)sc2C(=O)C(C)(C)CC)o1 [Compound 2.9] | 24 |
| CC(C)OC(=O)[C@H](C)NP(=O)(N[C@@H](C)C(=O)OC(C)C)c1ccc(-c2nc(N)sc2C(=O)c2cccc(F)c2)o1 [Compound 2.18, 2-amino-5-(3-fluorobenzoyl)-4-{[5-(N,N′-((S)-1-isopropyl-oxycarbonyl)ethyl)-phosphonamido]furan-2-yl}thiazole] | 13 |
| CCOC(=O)[C@H](C)OP(=O)(NC(C)(C)C(=O)OCC)c1ccc(-c2nc(N)sc2C(=O)C(C)(C)C)o1 (stereo partly shown) [Compound 5.9] | 10 |
| CCOC(=O)COP(=O)(N[C@@H](C)C(=O)OC(C)C)c1ccc(-c2nc(N)sc2C(=O)C(C)(C)C)o1 (stereo partly drawn) [Compound 5.6, 2-amino-5-(2,2-dimethylpropionyl)-4-{2-[5-(N-((S)-1-isopropyloxy-carbonyl)ethyl)-O-(ethoxycarbonylmethyl)monophosphonamido]furanyl}-thiazole] | 4 |
| CC(C)(C)C(=O)c1sc(N)nc1-c1ccc(P2(=O)OCC[C@H](c3cccc(Cl)c3)O2)o1 (stereo partly drawn) [Compound 7.2, (trans)-2-amino-5-(2,2-dimethylpropionyl)-4-{[5-(4-(3-chlorophenyl)-2-oxo-1,3,2-phosphorinan-2-yl)]furan-2-yl}thiazole] | 3 |
| Cc1ccccc1C(=O)c1sc(N)nc1-c1ccc(P(=O)(NC(C)(C)C(=O)OC(C)C)NC(C)(C)C(=O)OC(C)C)o1 [Compound 2.21] | 9 |
| CCOC(=O)C(C)(C)NP(=O)(Oc1ccc2c(c1)OCO2)c1ccc(-c2nc(N)sc2C(=O)C(C)(C)C)o1 (stereo not shown) [Compound 5.3] | 51 |
| CCOC(=O)COP(=O)(NC(C)(C)C(=O)OCC)c1ccc(-c2nc(N)sc2C(=O)C2CCC2)o1 (stereo not shown) [Compound 5.4] | 16 |
